Molecules are shown by their SMILES.

One may read the EC50 as the concentration at which the effect is half-maximal. Read a high EC50 as lower potency in that assay. Usually IC50 stands for the concentration needed to halve the response being measured. As a reminder, the efflux ratio is the permeability from basolateral to apical divided by that in the opposite direction, in the common usage.

The test system of series [1] is MDA-MB-436 (mutated BRCA1) cells. In words: Cell growth inhibition assay (CellTiter-Glo), MDA-MB-436. In kind it is cell-based. To be noted: Homo sapiens, MDA-MB-436, 168 h; cell viability, CellTiter Glo 2.0, 7 days. From the text: The objective of this study is to evaluate the effect of compound disclosed herein on cell proliferation through the cell viability assay in DLD-1 BRCA2(−/−) and parental isogenic pair and MDA-MB-436 (mutated BRCA1) cell lines. The CellTiter-Glo (CTG) based cell viability assay is designed to determine the number of viable cells in the culture because of compound effect, by quantifying ATP, which indicates the presence of metabolically active cells.
(§1) DLD-1 BRCA2(−/−) and parental isogenic pair were cultured in RPMI 1640 supplemented with 10% fetal bovine serum (FBS), and MDA-MB-436 cells were cultured in DMEM supplemented with 10% FBS. Both are culture at 37° C. with 5% CO2. Invention compounds were distributed to the 384 well plate (Corning, 3764) using Echo acoustic liquid handler to form a 1:3 serially diluted final concentration with top dose of 10 or 30 μM. The cells were seeded into the plate in the density of 50 cells/well (DLD-1 parental), 200 cells/well (DLD-1 BRCA2−/−), or 500 cells/well (MDA-MB-436). After a short spun, the cells were cultured in a well moisturized incubator at 37° C. with 5% CO2 for 7 days without disturbance. The cell viability was measured by CellTiter Glo 2.0 assay kit (Promega, G9243), and growth inhibition rate was calculated and plotted against final compound concentration, and the data were fitted in Xfit to generate IC50.
A general note: ATP-based viability assays read luminescence as a measure of living cells.

Series [2] deals with DLD-1 BRCA2(−/−) cells. Description: Cell growth inhibition assay (CellTiter-Glo), DLD-1 BRCA2(−/−). To be noted: Homo sapiens, DLD-1, 168 h; cell viability, CellTiter Glo 2.0, 7 days. Format: cell-based. As to the method: The objective of this study is to evaluate the effect of compound disclosed herein on cell proliferation through the cell viability assay in DLD-1 BRCA2(−/−) and parental isogenic pair and MDA-MB-436 (mutated BRCA1) cell lines.
as §1, with “Invention compounds were distributed to the 384 well plate (Corning, 3764) using Echo acoustic liquid handler to form a 1:3 serially diluted final concentration with top dose of 10 or 30 μM.” left out

Series [3] concerns the target BCRP (Homo sapiens (Human), UniProt Q9UNQ0). Description: In vitro human transporter efflux, MDCKII cells expressing BCRP. Format: in vitro ADME. To be noted: 10 μM, 2-hour incubation; for Papp A→B at 2 h, 10 μM: pH 7.4, apical-to-basolateral, pH7.4, read-out: BCRP Papp AB; for Papp B→A at 2 h, 10 μM: pH 7.4, basolateral-to-apical, pH7.4, read-out: BCRP Papp BA. Here is the method: (§2) Madin-Darby canine kidney (MDCKII) cells expressing either MDR1 or BCRP were seeded onto Corning HTS Transwell® 96-well polycarbonate permeable (0.4 μm pore) supports at a density of 545,000 cells/cm^2. Cells were incubated for 4-8 days prior to assay, and monolayer integrity was assessed by measuring transepithelial electrical resistance (TEER). […] The final organic solvent concentration was 0.5% (v/v). Bidirectional (apical-to-basolateral and basolateral-to-apical) flux of the test and reference compounds was determined over a 2-hour incubation at 37° C. and 5% CO2 with a relative humidity of 95%. At the end of the incubation, samples from the apical and basolateral side were taken and then precipitated with acetonitrile containing internal standard. After centrifugation at 3200×g, supernatants were diluted 1:1 (v/v) with water and subjected to analysis via HPLC-MS/MS.
(§3) Apparent permeability (Papp, ×10^−6 cm/s) was calculated for all transport assays using the following equation: […]
(§4) Efflux ratio was determined by calculating the ratio of the Papp in the basolateral-to-apical direction to the Papp in the apical-to-basolateral direction using the following equation: […]

Series [4] addresses MDR1 (Homo sapiens (Human), UniProt P08183). In words: In vitro human transporter efflux, MDCKII cells expressing MDR1. In kind it is in vitro ADME. To be noted: for Papp A→B at 2 h, 10 μM: MDCK-MDR1, pH 7.4, apical-to-basolateral, pH7.4, read-out: MDCK-MDR1 Papp AB; for Papp A→B at 2 h, 10 μM / Papp B→A at 2 h, 10 μM: 2-hour incubation; for Papp B→A at 2 h, 10 μM: MDCK-MDR1, pH 7.4, basolateral-to-apical, pH7.4, read-out: MDCK-MDR1 Papp BA; for efflux ratio at 2 h, 10 μM: MDCK-MDR1, pH 7.4, efflux ratio Papp BA/Papp AB. Here is the method:
as §2, §3, §4

For series [5], the target named is PARP1 (Homo sapiens (Human), UniProt P09874). Description: Biochemical fluorescence polarization (FP) assay, PARPi-FL displacement, PARP1. Format: binding. To be noted: 20 nM protein, 3 nM PARPi-FL, 4 h at room temperature. As to the method: (§5) To characterize our compounds, we utilized an assay measuring the displacement of a commercially available fluorescently labeled PARP 1/2 inhibitor (PARPi-FL, Tocris Biosciences, #6461) as exemplified in assays performed in WO2014/064149 and WO2021/013735A1. The assay was performed utilizing the following method: Compounds were dissolved in DMSO an Echo550 liquid handler was utilized to make serial dilations in the desired concentration range in Optiplate-384F plates. 100% DMSO was used for the high (with protein) and low (without protein) control samples. 20 nL of compound or DMSO alone was added to individual assay plate wells. […] The PARPi-FL was then added at a final concentration of 3 nM. The assay plate is centrifuged at 1000 rpm for 1 min and incubated for 4 h at room temperature. […] XLFit (equation 201) is used to calculate a reported IC50 for each compound.
PARP1, sequence (P09874 whole entry): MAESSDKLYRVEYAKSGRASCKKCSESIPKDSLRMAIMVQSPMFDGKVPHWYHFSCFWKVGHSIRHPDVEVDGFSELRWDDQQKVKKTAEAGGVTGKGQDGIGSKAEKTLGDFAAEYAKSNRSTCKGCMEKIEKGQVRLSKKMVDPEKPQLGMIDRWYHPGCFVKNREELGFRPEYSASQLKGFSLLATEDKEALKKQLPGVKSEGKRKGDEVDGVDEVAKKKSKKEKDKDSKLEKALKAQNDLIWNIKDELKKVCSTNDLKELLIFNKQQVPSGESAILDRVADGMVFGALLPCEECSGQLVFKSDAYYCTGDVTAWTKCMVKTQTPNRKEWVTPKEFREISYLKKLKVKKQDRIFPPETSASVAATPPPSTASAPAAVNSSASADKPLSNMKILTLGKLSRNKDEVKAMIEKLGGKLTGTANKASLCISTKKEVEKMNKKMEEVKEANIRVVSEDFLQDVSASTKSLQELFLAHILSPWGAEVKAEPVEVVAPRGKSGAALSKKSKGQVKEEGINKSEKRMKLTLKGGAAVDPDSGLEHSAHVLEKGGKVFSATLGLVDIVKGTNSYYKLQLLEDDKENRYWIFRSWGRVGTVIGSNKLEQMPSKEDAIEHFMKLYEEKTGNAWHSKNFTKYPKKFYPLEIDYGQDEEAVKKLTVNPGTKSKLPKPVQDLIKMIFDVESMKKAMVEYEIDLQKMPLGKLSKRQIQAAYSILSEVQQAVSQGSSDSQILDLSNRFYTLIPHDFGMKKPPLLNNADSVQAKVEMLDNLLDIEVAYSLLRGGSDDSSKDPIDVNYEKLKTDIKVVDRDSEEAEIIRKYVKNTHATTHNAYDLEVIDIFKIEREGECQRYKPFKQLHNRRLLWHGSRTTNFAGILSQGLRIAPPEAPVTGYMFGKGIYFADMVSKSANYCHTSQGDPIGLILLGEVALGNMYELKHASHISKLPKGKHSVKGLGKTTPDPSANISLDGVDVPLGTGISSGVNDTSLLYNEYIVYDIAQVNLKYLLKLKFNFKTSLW
A general note: In fluorescence polarisation assays a small probe gives low polarisation when free and higher when bound to something large.

The target of series [6] is PARP2 (Homo sapiens (Human), UniProt Q9UGN5). In words: Biochemical fluorescence polarization (FP) assay, PARPi-FL displacement, PARP2. In kind it is binding. To be noted: 20 nM protein, 3 nM PARPi-FL, 4 h at room temperature. As to the method:
as §5

Series [7] can be described thus: HLM stability, predicted human hepatic clearance. In kind it is in vitro ADME. To be noted: well-stirred model, 1 μM, 0.5 mg/mL microsomal protein, NADPH. Here is the method:
Working stocks of individual test articles were prepared at a concentration of 100 μM by diluting 10 mM stocks prepared in DMSO 100-fold (v:v) into ACN. Thawed hepatic microsomes were suspended in 100 mM potassium phosphate buffer, pH 7.4 to a microsomal protein concentration of 0.562 mg/mL. Diluted microsomes were combined with a solution of 10 mM NADPH, and the mixture was pre-warmed to 37° C. for 8 min. Reactions were initiated by addition of the test article working stocks to achieve a final test article concentration of 1 μM. Final microsomal protein and NADPH concentrations were 0.5 mg/mL and 1 mM, respectively. Incubations containing NADPH were run in duplicate. Test article losses mediated by non-CYP mechanisms were evaluated in a parallel set of incubations run in the absence of NADPH. Incubations lacking NADPH consisted of 1 replicate per test article. Following incubation in a 37° C. water bath, aliquots of individual reactions were quenched with cold ACN containing internal standards at […], 15-, 30-, 60-, 90-, and 120-min. Precipitated protein was pelleted via refrigerated centrifugation. Supernatants were diluted into an equal volume of pure water and mixed well prior to analysis via LC-MS/MS. In vitro intrinsic clearances (CLint) in μL/min/mg were determined for each incubation from calculated in vitro half-lives determined using a standard log-linear regression approach. In vitro CLint values were scaled up using the following physiological scaling factors: 40 mg microsomal protein/g human liver and 25.7 g human liver/kg body weight.

A short description of series [8]: hHEP stability, predicted human hepatic clearance. In kind it is in vitro ADME. To be noted: well-stirred model, 0.5×10^6 viable cells/mL. Here is the method: Working stocks of individual test articles were prepared at concentrations of 100 μM by diluting 10 mM stocks prepared in DMSO 100-fold (v:v) into ACN/H2O (50/50, v:v). Human cryopreserved hepatocytes were thawed in a 37° C. water bath in <2 min., suspended in thawing media, and then centrifuged at 100×g for 10 min. Thawing media was aspirated, and pelleted hepatocytes were resuspended into incubation media at 1.5×10^6 cells/mL. Cell viability was determined using an Acridine Orange/Propidium Iodine stain, and hepatocytes were further diluted with incubation media to 0.5×10^6 viable cells/mL. Hepatocyte aliquots of 198 μL were added to wells of a 96-well plate, and test article incubations were initiated by the addition of 2 μL of 100 μM working stocks. Plates were incubated at 37° C. in a 5% CO2 atmosphere at 95% relative humidity on an orbital shaker at 300 rpm. Incubations were performed in duplicate. Following incubation, aliquots of individual reactions were terminated by addition of ACN containing internal standards at 0, 30-, 60-, 90-, 120-, and 240-min. Precipitated protein was pelleted via refrigerated centrifugation. Supernatants were diluted into an equal volume of pure water and mixed well prior to analysis via LC-MS/MS. In vitro intrinsic clearances (CLint) in μL/min/10^6 cells were determined for each incubation from calculated in vitro half-lives determined using a standard log-linear regression approach. In vitro CLint values were scaled up using the following physiological scaling factors: 99×10^6 cells/g human liver and 25.7 g human liver/kg body weight.

MDR1, sequence (P08183 whole entry): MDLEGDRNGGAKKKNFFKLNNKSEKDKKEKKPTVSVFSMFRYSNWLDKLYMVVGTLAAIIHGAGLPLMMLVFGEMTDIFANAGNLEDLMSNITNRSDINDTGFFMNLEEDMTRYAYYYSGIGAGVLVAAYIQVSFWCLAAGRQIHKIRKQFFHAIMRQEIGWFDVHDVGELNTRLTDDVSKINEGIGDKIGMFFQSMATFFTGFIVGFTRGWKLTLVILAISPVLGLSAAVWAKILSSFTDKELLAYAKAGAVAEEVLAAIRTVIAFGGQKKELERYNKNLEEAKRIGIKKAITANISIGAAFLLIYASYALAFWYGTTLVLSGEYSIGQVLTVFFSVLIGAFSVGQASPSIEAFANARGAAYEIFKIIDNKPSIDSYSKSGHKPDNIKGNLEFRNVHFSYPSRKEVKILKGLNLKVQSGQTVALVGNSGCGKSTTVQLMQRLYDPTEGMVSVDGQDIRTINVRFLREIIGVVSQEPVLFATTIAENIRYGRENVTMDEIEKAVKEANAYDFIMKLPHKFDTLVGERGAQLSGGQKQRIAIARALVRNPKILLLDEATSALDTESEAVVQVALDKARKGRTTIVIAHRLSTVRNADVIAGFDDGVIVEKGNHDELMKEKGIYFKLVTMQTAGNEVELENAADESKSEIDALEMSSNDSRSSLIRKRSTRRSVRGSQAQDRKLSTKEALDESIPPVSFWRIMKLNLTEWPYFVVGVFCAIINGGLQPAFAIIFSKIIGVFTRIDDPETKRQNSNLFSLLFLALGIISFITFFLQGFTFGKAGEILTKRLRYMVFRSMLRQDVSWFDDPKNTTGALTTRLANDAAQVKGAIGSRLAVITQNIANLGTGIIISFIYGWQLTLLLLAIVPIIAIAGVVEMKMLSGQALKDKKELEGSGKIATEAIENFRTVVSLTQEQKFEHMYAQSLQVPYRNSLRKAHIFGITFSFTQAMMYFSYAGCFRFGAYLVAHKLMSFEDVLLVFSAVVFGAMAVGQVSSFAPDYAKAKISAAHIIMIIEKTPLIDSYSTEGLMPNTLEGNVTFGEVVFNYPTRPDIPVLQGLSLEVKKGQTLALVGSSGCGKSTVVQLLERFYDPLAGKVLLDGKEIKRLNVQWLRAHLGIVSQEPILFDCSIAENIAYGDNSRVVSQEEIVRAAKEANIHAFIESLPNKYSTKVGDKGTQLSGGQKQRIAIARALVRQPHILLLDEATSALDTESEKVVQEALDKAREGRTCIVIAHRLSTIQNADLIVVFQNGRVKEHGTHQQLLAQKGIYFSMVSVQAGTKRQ
BCRP, sequence (Q9UNQ0 whole entry): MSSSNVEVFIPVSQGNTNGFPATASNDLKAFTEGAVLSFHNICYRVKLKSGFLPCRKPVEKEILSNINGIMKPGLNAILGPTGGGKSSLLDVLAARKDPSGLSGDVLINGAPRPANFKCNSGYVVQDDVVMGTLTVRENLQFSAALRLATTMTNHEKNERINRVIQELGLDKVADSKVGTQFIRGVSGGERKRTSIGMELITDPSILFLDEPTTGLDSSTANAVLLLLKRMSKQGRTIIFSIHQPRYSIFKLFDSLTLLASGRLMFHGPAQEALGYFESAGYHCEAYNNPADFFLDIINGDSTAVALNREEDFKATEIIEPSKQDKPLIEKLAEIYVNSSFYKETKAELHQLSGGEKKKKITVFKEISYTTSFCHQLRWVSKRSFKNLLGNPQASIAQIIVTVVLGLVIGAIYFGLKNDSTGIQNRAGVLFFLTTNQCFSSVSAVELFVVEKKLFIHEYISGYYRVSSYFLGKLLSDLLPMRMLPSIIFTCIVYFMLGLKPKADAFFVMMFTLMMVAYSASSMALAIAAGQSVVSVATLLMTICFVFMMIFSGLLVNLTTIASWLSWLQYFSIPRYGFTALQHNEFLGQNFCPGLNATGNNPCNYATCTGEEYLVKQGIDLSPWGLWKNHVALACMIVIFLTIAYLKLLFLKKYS
PARP2, sequence (Q9UGN5 whole entry): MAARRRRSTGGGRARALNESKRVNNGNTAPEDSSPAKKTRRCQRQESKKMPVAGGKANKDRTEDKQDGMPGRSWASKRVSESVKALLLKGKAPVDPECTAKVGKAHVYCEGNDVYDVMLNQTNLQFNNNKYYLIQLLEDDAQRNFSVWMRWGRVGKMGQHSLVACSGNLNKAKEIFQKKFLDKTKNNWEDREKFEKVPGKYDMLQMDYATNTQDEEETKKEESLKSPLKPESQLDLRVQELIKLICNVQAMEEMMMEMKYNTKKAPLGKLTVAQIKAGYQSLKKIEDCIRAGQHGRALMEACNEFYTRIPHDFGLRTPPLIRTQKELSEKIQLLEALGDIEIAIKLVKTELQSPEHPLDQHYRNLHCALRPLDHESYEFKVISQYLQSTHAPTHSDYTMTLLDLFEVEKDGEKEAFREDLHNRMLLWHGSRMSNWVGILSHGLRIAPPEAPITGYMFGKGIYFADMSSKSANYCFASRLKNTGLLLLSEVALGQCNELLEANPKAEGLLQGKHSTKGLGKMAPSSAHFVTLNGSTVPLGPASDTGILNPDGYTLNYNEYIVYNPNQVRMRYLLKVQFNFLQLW

For the compound `[2H]C([2H])([2H])NC(=O)c1ccc(N2CCN(Cc3ccc4c5c(c(=O)[nH]c4c3F)CCO5)CC2)c(F)n1` (single isomer, unassigned) [Example 22], the EC50 was determined as 4.9 nM in series [1] and 6.6 nM in series [2]. In addition, the Papp A→B at 2 h, 10 μM in series [3] was found to be 28.2 ×10⁻⁶ cm/s; in series [4], 15.1 ×10⁻⁶ cm/s. The Papp B→A at 2 h, 10 μM in series [3] was 23.6 ×10⁻⁶ cm/s; in series [4], 23.3 ×10⁻⁶ cm/s.
As for `[2H]C([2H])(c1ccc2c3c(c(=O)[nH]c2c1F)CCO3)N1CCN(c2ccc(C(=O)NC)nc2F)CC1` (single isomer, unassigned) [Example 24], the EC50 in series [1] worked out at 3 nM; in series [2] it was 3.8 nM. The values for the Papp A→B at 2 h, 10 μM in series [3] and in series [4] were 22.9 ×10⁻⁶ cm/s and 16.3 ×10⁻⁶ cm/s, respectively. Further, the figures for the Papp B→A at 2 h, 10 μM in series [3] and in series [4] were 24.4 ×10⁻⁶ cm/s and 32.9 ×10⁻⁶ cm/s, respectively.
As for `[2H]C([2H])([2H])NC(=O)c1ccc(N2CCN(Cc3ccc4c([nH]c(=O)c5c(F)cnn54)c3F)CC2)c(F)n1` (single isomer, unassigned) [Example 33], the IC50 in series [5] is 11 nM; in series [6] it was over 100000 nM. The results for the concentration giving a half-maximal response (EC50) in series [1] and in series [2] were 0.79 nM and 0.96 nM, respectively.
On the same counts, the results for `[2H]C([2H])(c1ccc2c([nH]c(=O)c3c(F)cnn32)c1F)N1CCN(c2ccc(C(=O)NC)nc2F)CC1` (single isomer, unassigned) [Example 34] are 40 nM, over 100000 nM, 1.1 nM and 0.99 nM.
`CNC(=O)c1ccc(N2CCN(Cc3ccc4c5c(c(=O)[nH]c4c3)CCO5)CC2)c(C)n1` [Comp. Ex. 1, N,6-dimethyl-5-[4-({4-oxo-2H,3H,5H-furo[3,2-c]quinolin-7-yl}methyl)piperazin-1-yl]pyridine-2-carboxamide, reference compound]: in series [1], the EC50 was determined as 0.6 nM. Further, the EC50 in series [2] came to 2 nM. For the same compound, in series [4], the Papp A→B at 2 h, 10 μM was 7.5 ×10⁻⁶ cm/s and the Papp B→A at 2 h, 10 μM was found to be 39.8 ×10⁻⁶ cm/s. Also, the “HLM Clh” value in series [7] is reported as under 4 mL/min/kg. Also, the “HHEP Clh” value in series [8] is recorded as under 3.3 mL/min/kg.
The compound `CNC(=O)c1ccc(N2CCN(Cc3ccc4c5c(c(=O)[nH]c4c3)CCO5)CC2)c(Cl)n1` [Comp. Ex. 2, 6-chloro-N-methyl-5-[4-({4-oxo-2H,3H,5H-furo[3,2-c]quinolin-7-yl}methyl)piperazin-1-yl]pyridine-2-carboxamide, reference compound] gave an EC50 in series [1] of 0.7 nM. In addition, in series [2], it took 1.7 nM to reach a half-maximal effect (EC50). Further, in series [4], the Papp A→B at 2 h, 10 μM stood at 5.7 ×10⁻⁶ cm/s; the Papp B→A at 2 h, 10 μM turned out to be 29 ×10⁻⁶ cm/s; the efflux ratio at 2 h, 10 μM was 5.1. The “HLM Clh” value in series [7] was 4.2 mL/min/kg. For the same compound, the “HHEP Clh” value in series [8] is recorded as 6.6 mL/min/kg.
The compound `CNC(=O)c1ccc(N2CCN(Cc3cc(F)c4c5c(c(=O)[nH]c4c3)COC5)CC2)c(F)n1` [Comp. Ex. 3, 6-fluoro-5-(4-((9-fluoro-4-oxo-1,3,4,5-tetrahydrofuro[3,4-c]quinolin-7-yl)methyl)piperazin-1-yl)-N-methylpicolinamide, reference compound] gave a concentration for a half-maximal effect (EC50) in series [1] of 0.4 nM. In addition, a half-maximal effect in series [2] (EC50) was put at 1.6 nM. Also, in series [4], the Papp A→B at 2 h, 10 μM came out at 6.6 ×10⁻⁶ cm/s; the Papp B→A at 2 h, 10 μM worked out at 32.3 ×10⁻⁶ cm/s; the efflux ratio at 2 h, 10 μM came to 5. Moreover, in series [7], the “HLM Clh” value is 7.2 mL/min/kg. In series [8], the “HHEP Clh” value was 7.1 mL/min/kg.
Turning to `[2H]C([2H])([2H])NC(=O)c1ccc(N2CCN(Cc3ccc4c([nH]c(=O)c5ccoc54)c3F)CC2)c(F)n1` [Example 30], the IC50 is 56 nM in series [5] and over 100000 nM in series [6]. The 50% effective concentration (EC50) is 4.6 nM in series [1] and 6.5 nM in series [2].

(Values after US11795173B1, “Substituted pyridines as PARP1 inhibitors” (Xinthera, Inc., priority 2022, dated 2023).)
